Reference: patent US20240317744A1, “Bicyclic Ureas As Kinase Inhibitors” (Incyte Corporation, priority 2023, published 2024)
pIC50: −log10 of the molar value.

Key:
[1] = molecular target: T1, catalytic domain (JH1, amino acids 826-1132) of human JAK2 (Homo sapiens, UniProt O60674); assay: JAK2 LanthaScreen JH1 Binding Assay; settings: JAK2 JH1 1.5 nM, 50 nM tracer, 2 hours at 25° C.; read-out: JH1 BIND
T1 construct: catalytic domain (JH1, amino acids 826-1132) of human JAK2; FLAG (N); biotin (biotinylated); purchased Carna Biosciences 08-445-20N; host or cells: baculovirus expression system
How it was run: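 TR-FRET tracer-displacement format: compound IC50 from four-parameter curves after 2 h at 25° C. Reaction held 1.5 nM biotinylated, FLAG-tagged JH1 (aa 826-1132), 50 nM tracer, 0.5 nM Streptavidin-Tb, pH 7.5 Tris buffer; 2 mM ATP set nonspecific background.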

[2] = molecular target: T2, pseudo-kinase domain (JH2, amino-acids 536-812) of human Wild Type JAK2 (Homo sapiens, UniProt O60674, F794H/W659A/W777A); assay: JAK2 LanthaScreen JH2-WT Binding Assay; settings: JAK2 JH2-WT 0.145 nM, 50 nM tracer, 1 hour at 25° C.; read-out: JH2 BIND WT
T2 construct: pseudo-kinase domain (JH2, amino-acids 536-812 with 3 surface mutations W659A, W777A, F794H); His (C); purchased BPS Bioscience 79463; host or cells: baculovirus expression system
How it was run: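 Biotinylated C-terminal His-Avi-tagged JH2 (residues 536-812, baculovirus-expressed) at 0.145 nM was incubated with serially diluted compounds, 50 nM fluorescent JAK2-JH2 tracer and 0.25 nM streptavidin-Tb cryptate in pH 7.5 Tris buffer with MgCl2, Brij-35, BSA, EGTA, glycerol and DTT. LanthaScreen TR-FRET was read after 1 hour at 25° C; IC50 came from four-parameter fits.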

[3] = molecular target: T3, pseudo-kinase domain (JH2, amino-acids 536-812) of human V617F mutant JAK2 (Homo sapiens, UniProt O60674, F794H/V617F/W659A/W777A); assay: JAK2 LanthaScreen JH2-V617F Binding Assay; settings: JAK2 JH2-V617F 0.26 nM, 50 nM tracer, 1 hour at 25° C.; read-out: JH2 BIND V617F
T3 construct: pseudo-kinase domain (JH2, amino-acids 536-812 with 3 surface mutations W659A, W777A, F794H); His (C); purchased BPS Bioscience 79498; host or cells: baculovirus expression system
How it was run: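 Binding was measured as TR-FRET displacement of 50 nM tracer from 0.26 nM biotinylated His-Avi protein, incubated one hour at 25° C; IC50 from a four-parameter fit.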

[4] = molecular target: catalytic domain (JH1, amino acids 808-1132) of human JAK2 (Homo sapiens, UniProt O60674); assay: JAK2 HTRF Enzyme Activity Assay; assay type: biochemical; settings: ATP 30 µM, 60 minutes at 25° C.; read-out: V617F ENZ 30 UM
Chain of catalytic domain (JH1, amino acids 808-1132) of human JAK2 (O60674 808-1132 limits assumed): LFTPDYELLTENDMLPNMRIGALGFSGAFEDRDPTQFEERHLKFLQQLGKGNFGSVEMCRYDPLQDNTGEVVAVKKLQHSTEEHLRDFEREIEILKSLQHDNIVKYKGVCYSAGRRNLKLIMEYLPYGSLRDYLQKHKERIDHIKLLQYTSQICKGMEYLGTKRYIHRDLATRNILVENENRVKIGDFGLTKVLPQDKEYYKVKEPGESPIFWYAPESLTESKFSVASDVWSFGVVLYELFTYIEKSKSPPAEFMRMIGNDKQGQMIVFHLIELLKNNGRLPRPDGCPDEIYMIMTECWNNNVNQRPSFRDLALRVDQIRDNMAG

T3 sequence (O60674 536-812 V617F/W659A/W777A/F794H): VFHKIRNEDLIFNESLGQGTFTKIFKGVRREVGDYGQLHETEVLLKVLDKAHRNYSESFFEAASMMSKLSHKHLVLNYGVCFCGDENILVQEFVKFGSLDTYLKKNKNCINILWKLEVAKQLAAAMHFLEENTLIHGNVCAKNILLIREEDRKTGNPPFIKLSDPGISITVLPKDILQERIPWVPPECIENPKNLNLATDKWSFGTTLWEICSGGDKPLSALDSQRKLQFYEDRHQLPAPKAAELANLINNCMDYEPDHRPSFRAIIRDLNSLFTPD
T2 sequence (O60674 536-812 W659A/W777A/F794H): as the sequence (O60674 536-812 V617F/W659A/W777A/F794H) above, with F82V counted along it
T1 sequence (O60674 826-1132): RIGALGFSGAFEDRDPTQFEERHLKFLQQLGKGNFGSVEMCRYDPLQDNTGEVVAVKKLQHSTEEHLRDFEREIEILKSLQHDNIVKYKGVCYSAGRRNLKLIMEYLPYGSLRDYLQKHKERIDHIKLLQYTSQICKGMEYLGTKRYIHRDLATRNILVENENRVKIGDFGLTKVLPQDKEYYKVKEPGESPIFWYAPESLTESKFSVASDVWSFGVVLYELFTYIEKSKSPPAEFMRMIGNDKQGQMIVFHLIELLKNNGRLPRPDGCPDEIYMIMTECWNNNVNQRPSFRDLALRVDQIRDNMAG

Row | Compound | pIC50 [1] | pIC50 [2] | pIC50 [3] | pIC50 [4]
1 | [2H]C([2H])([2H])n1c(=O)n(C2CC3(CC(NC(=O)C4CC4)C3)C2)c2cc(Nc3cc(C(=O)N4CCOCC4)c4cccc(C(F)(F)F)c4n3)ncc21 (stereo not drawn) [Example 90, N-(6-(3-(Methyl-d3)-6-((4-(morpholine-4-carbonyl)-8-(trifluoromethyl)quinolin-2-yl)amino)-2-oxo-2,3-dihydro-1H-imidazo[4,5-c]pyridin-1-yl)spiro[3,3]heptan-2-yl)cyclopropanecarboxamide] | 6.30 to 7.00 | ≥ 8.00 | ≥ 8.00 | < 6.00
2 | [2H]C([2H])([2H])n1c(=O)n([C@@H]2CC[C@@H](NC(=O)OC)C2)c2cc(Nc3cc(C(C)(C)O)c4nc(C)n(-c5cnn(C(F)F)c5)c4n3)ncc21 [Example 115, Methyl ((1R,3R)-3-(6-((3-(1-(difluoromethyl)-1H-pyrazol-4-yl)-7-(2-hydroxypropan-2-yl)-2-methyl-3H-imidazo[4,5-b]pyridin-5-yl)amino)-3-(methyl-d3)-2-oxo-2,3-dihydro-1H-imidazo[4,5-c]pyridin-1-yl)cyclopentyl)carbamate] | < 6.00 | ≥ 8.00 | ≥ 8.00 | < 6.00
3 | COC(=O)N[C@@H]1CC[C@@H](n2c(=O)n(C)c3cnc(Nc4cccc(-c5ccc(CO)c(C)c5)n4)cc32)C1 [Example 4, Methyl ((1R,3R)-3-(6-((6-(4-(hydroxymethyl)-3-methylphenyl)pyridin-2-yl)amino)-3-methyl-2-oxo-2,3-dihydro-1H-imidazo[4,5-c]pyridin-1-yl)cyclopentyl)carbamate] | < 6.00 | ≥ 8.00 | ≥ 8.00 | < 6.00
4 | COC(=O)N[C@@H]1CC[C@@H](n2c(=O)n(C)c3cnc(Nc4cccc(-c5ccc6c(c5)OCCN6C)n4)cc32)C1 [Example 11, Methyl ((1R,3R)-3-(3-methyl-6-((6-(4-methyl-3,4-dihydro-2H-benzo[b][1,4]oxazin-7-yl)pyridin-2-yl)amino)-2-oxo-2,3-dihydro-1H-imidazo[4,5-c]pyridin-1-yl)cyclopentyl)carbamate] | < 6.00 | ≥ 8.00 | ≥ 8.00 | < 6.00
5 | COC(=O)N[C@@H]1CC[C@@H](n2c(=O)n(C)c3cnc(Nc4cccc(Oc5ccc6ncccc6c5)n4)cc32)C1 [Example 23, Methyl ((1R,3R)-3-(3-methyl-2-oxo-6-((6-(quinolin-6-yloxy)pyridin-2-yl)amino)-2,3-dihydro-1H-imidazo[4,5-c]pyridin-1-yl)cyclopentyl)carbamate] | < 6.00 | 7.00 to 8.00 | 7.00 to 8.00 | < 6.00
6 | COC(=O)Nc1cc(Nc2cc3c(cn2)n(C)c(=O)n3[C@@H]2CC[C@@H](NC(=O)OC)C2)cc(-c2cnn(C)c2)c1 [Example 53, Methyl ((1R,3R)-3-(6-((3-((methoxycarbonyl)amino)-5-(1-methyl-1H-pyrazol-4-yl)phenyl)amino)-3-methyl-2-oxo-2,3-dihydro-1H-imidazo[4,5-c]pyridin-1-yl)cyclopentyl)carbamate] | < 6.00 | ≥ 8.00 | 7.00 to 8.00 | < 6.00
7 | [2H]C([2H])([2H])n1c(=O)n([C@@H]2CC[C@@H](NC(=O)OC)C2)c2cc(Nc3cc(-c4cnccc4C(F)(F)F)c4c(n3)n(-c3cnn(C(F)F)c3)c(=O)n4C)ncc21 [Example 89, Methyl ((1R,3R)-3-(6-((3-(1-(difluoromethyl)-1H-pyrazol-4-yl)-1-methyl-2-oxo-7-(4-(trifluoromethyl)pyridin-3-yl)-2,3-dihydro-1H-imidazo[4,5-b]pyridin-5-yl)amino)-3-(methyl-d3)-2-oxo-2,3-dihydro-1H-imidazo[4,5-c]pyridin-1-yl)cyclopentyl)carbamate] | < 6.00 | ≥ 8.00 | ≥ 8.00 | < 6.00
8 | [2H]C([2H])([2H])n1c(=O)n([C@@H]2CC[C@@H](NC(=O)OC)C2)c2cc(Nc3ccnc(-c4ccnc(OC)c4)n3)ncc21 [Example 75, Methyl ((1R,3R)-3-(6-((2-(2-methoxypyridin-4-yl)pyrimidin-4-yl)amino)-3-(methyl-d3)-2-oxo-2,3-dihydro-1H-imidazo[4,5-c]pyridin-1-yl)cyclopentyl)carbamate] | < 6.00 | ≥ 8.00 | ≥ 8.00 | < 6.00
9 | COC(=O)N[C@@H]1CC[C@@H](n2c(=O)n(C)c3cnc(Nc4ccc5cccc(-c6cnn(C)c6)c5n4)cc32)C1 [Example 33, Methyl ((1R,3R)-3-(3-methyl-6-((8-(1-methyl-1H-pyrazol-4-yl)quinolin-2-yl)amino)-2-oxo-2,3-dihydro-1H-imidazo[4,5-c]pyridin-1-yl)cyclopentyl)carbamate] | < 6.00 | 7.00 to 8.00 | 7.00 to 8.00 | < 6.00
10 | COC(=O)N[C@@H]1CC[C@@H](n2c(=O)n(C)c3cnc(Nc4ccc5ncc(-c6cncn6C)n5n4)cc32)C1 [Example 38, Methyl ((1R,3R)-3-(3-methyl-6-((3-(1-methyl-1H-imidazol-5-yl)imidazo[1,2-b]pyridazin-6-yl)amino)-2-oxo-2,3-dihydro-1H-imidazo[4,5-c]pyridin-1-yl)cyclopentyl)carbamate] | < 6.00 | ≥ 8.00 | 7.00 to 8.00 | < 6.00
11 | COC(=O)N[C@@H]1CC[C@@H](n2c(=O)n(C)c3cnc(Nc4ccnc(NC5CCOCC5)n4)cc32)C1 [Example 85, Methyl ((1R,3R)-3-(3-methyl-2-oxo-6-((2-((tetrahydro-2H-pyran-4-yl)amino)pyrimidin-4-yl)amino)-2,3-dihydro-1H-imidazo[4,5-c]pyridin-1-yl)cyclopentyl)carbamate] | < 6.00 | 7.00 to 8.00 | 7.00 to 8.00 | < 6.00
12 | COC(=O)N[C@@H]1CC[C@@H](n2c(=O)n(C)c3cnc(Nc4cc(NC(=O)OC5CC5)cc(OC)c4)cc32)C1 [Example 55, Methyl ((1R,3R)-3-(6-((3-((cyclopropoxycarbonyl)amino)-5-methoxyphenyl)amino)-3-methyl-2-oxo-2,3-dihydro-1H-imidazo[4,5-c]pyridin-1-yl)cyclopentyl)carbamate] | < 6.00 | ≥ 8.00 | 7.00 to 8.00 | < 6.00
13 | COC(=O)Nc1cc(Nc2cc3c(cn2)n(C)c(=O)n3[C@@H]2CCC(F)(F)C2)cc(-c2cnn(C)c2)c1 [Example 30, Methyl (R)-(3-((1-(3,3-difluorocyclopentyl)-3-methyl-2-oxo-2,3-dihydro-1H-imidazo[4,5-c]pyridin-6-yl)amino)-5-(1-methyl-1H-pyrazol-4-yl)phenyl)carbamate] | < 6.00 | 7.00 to 8.00 | 6.30 to 7.00 | < 6.00
14 | [2H]C([2H])([2H])n1c(=O)n([C@@H]2CC[C@@H](NC(=O)OC)C2)c2cc(Nc3cc(CN4CC[C@H](F)C4)cc(-c4ccc5c(c4)OCCO5)n3)ncc21 [Example 70, Methyl ((1R,3R)-3-(6-((6-(2,3-dihydrobenzo[b][1,4]dioxin-6-yl)-4-(((S)-3-fluoropyrrolidin-1-yl)methyl)pyridin-2-yl)amino)-3-(methyl-d3)-2-oxo-2,3-dihydro-1H-imidazo[4,5-c]pyridin-1-yl)cyclopentyl)carbamate] | < 6.00 | ≥ 8.00 | ≥ 8.00 | < 6.00
15 | [2H]C([2H])([2H])n1c(=O)n([C@@H]2CC[C@@H](NC(=O)OC)C2)c2cc(Nc3cc(CN4CC(C(F)F)C4)cc(-c4ncc(C(F)(F)F)s4)n3)ncc21 [Example 101, Methyl ((1R,3R)-3-(6-((4-((3-(difluoromethyl)azetidin-1-yl)methyl)-6-(5-(trifluoromethyl)thiazol-2-yl)pyridin-2-yl)amino)-3-(methyl-d3)-2-oxo-2,3-dihydro-1H-imidazo[4,5-c]pyridin-1-yl)cyclopentyl)carbamate] | < 6.00 | ≥ 8.00 | ≥ 8.00 | < 6.00
